{"source": "patent US20260263644A1", "about": "“USE OF POSITRON MYOCARDIAL FATTY ACID METABOLISM IMAGING AGENT AND POSITRON 18F-FDG MYOCARDIAL GLUCOSE IMAGING AGENT IN PET COMBINED IMAGING” (priority 2023, published 2026)", "key": {"[1]": {"tested_on": "anterior wall myocardium with chronic myocardial infarction", "assay": "Combined 18F-FDG and XTR003 PET myocardial metabolic imaging under fasting in the chronic myocardial infarction pig model", "format": "in vivo, Bama miniature pig", "conditions": "for uptake in the myocardial infarction area (PET myocardial metabolic image): 18F-FDG 1mCi first", "experimental": "Each experiment used a Bama miniature pig approximately one year old, and the experiment was repeated three times. Taking the second of the three experiments as an example: the piglet weighed approximately 10 kg. A constrictive ring was placed at the site of the left anterior descending coronary artery to gradually induce chronic myocardial infarction in the anterior wall myocardium. Four weeks later, for comparative purposes, a ^99mTc-Sestamibi SPECT myocardial perfusion imaging was performed in the morning (this imaging is the gold standard for assessing viable and scarred myocardium in the infarcted area and was used in this study as a reference for comparing PET imaging results). In the afternoon, a one-day protocol for combined ^18F-FDG and XTR003 PET imaging was performed (with at least 2-hour interval from the SPECT conducted in the morning, during which fasting was maintained). ^18F-FDG PET imaging was performed first, followed by XTR003 PET imaging. The injection doses of the above two agents were 1mCi and 2.5mCi, respectively. XTR003 was injected 1 hour after the ^18F-FDG injection, followed immediately by PET imaging. Each experiment used a Bama miniature pig about one year old, and the experiment was repeated three times. Taking the second of the three experiments as an example: the piglet weighed approximately 11 kg. A constriction ring was placed at the site of the left anterior descending coronary artery to gradually induce chronic myocardial infarction in the anterior wall myocardium. Three weeks later, for comparative purposes, a 99mTc-Sestamibi SPECT myocardial perfusion imaging was performed in the morning. In the afternoon, a one-day protocol combining ^18F-FDG and XTR003 PET imaging was performed, ^18F-FDG PET imaging was performed first, followed by XTR003 PET imaging. The injection doses of the above two agents were 1mCi and 3.1mCi, respectively. Among them, XTR003 was injected 1 hour after the ^18F-FDG injection, followed immediately by PET imaging. A disease animal model was constructed as described in Example 1. After myocardial perfusion imaging, “a one-day protocol combining ^18F-FDG PET and XTR003 PET imaging” was performed, wherein XTR003 was injected one hour after the injection of ^18F-FDG, followed immediately by PET imaging. The only difference between the Comparative Example and Example 1 is that the injection doses of the above two agents were 1 mCi and 0.25 mCi, respectively. The results of the combined ^18F-FDG and XTR003 PET imaging (also used the second experiment out of three replicates as an example) are shown in FIGS. 3a-3b. In the Figs.: An animal model of the disease was constructed as described in Example 1, differing only in the order of imaging; specifically, XTR003 PET imaging was performed first, followed by ^18F-FDG PET imaging. The injection doses of the two agents were 1 mCi and 3 mCi, respectively. In the Figs.: An animal model of the disease was constructed as described in Example 3. After myocardial perfusion, “a one-day protocol combining XTR003 PET and ^18F-FDG PET imaging” was performed, wherein ^18F-FDG was injected one hour after the injection of XTR003, followed immediately by PET imaging. The only difference between the Comparative Example and Example 3 was that the injection doses of the above two agents were 1 mCi and 0.25 mCi, respectively. In the Figs.: The disease animal model was constructed according to the description of Example 1. The only difference from Example 1 was that after the myocardial perfusion imaging, a “two-day protocol combining ^18F-FDG PET and XTR003 PET imaging” was performed instead of the “one-day protocol”. In the Figs.: An animal model of the disease was constructed as described in Example 1. After myocardial perfusion imaging, a “a one-day protocol combining ^18F-FDG PET and XTR003 PET imaging” was performed, wherein XTR003 was injected one hour after the injection of ^18F-FDG, followed immediately by PET imaging. […]"}, "normal myocardium": {"tested_on": "normal myocardium", "assay": "Separate PET imaging with a single imaging agent, without combination", "format": "in vivo, Bama miniature pig", "conditions": "Comparative Example 3; fasting; each agent administered separately, not in combination; FIGS. 7a, 7b", "experimental": "Each experiment was performed using a Bama miniature pig of about one year old, and the experiment was repeated three times; taking the second experiment of the three experiments as an example: the piglet weighed about 10 kg, and the two imaging agents were administered separately for imaging rather than in combination. The results of separate PET imaging with ^18F-FDG and XTR003 are shown in FIGS. 7a and 7b, respectively."}}, "data": [{"smiles": "CCCCCCCCC([18F])CCCCC1CC1CC(=O)O", "note": "(stereo not shown) [XTR003]", "values": [{"measurement": "image quality of myocardial metabolic images", "setting": "[1]; Comparative Example 1, one-day protocol, 18F-FDG 1 mCi first, then XTR003 0.25 mCi, FIGS. 3a-3b", "result": "excessive image noise"}, {"measurement": "image quality of myocardial metabolic images", "setting": "[1]; Comparative Example 2, one-day protocol, XTR003 1 mCi first, then 18F-FDG 0.25 mCi, FIGS. 5a-5b", "result": "normal image quality"}, {"measurement": "uptake in the myocardial infarction area (PET myocardial metabolic image)", "setting": "[1]; Example 1, one-day protocol, XTR003 2.5mCi injected 1 hour later, FIGS. 1b-1c", "result": "moderate uptake"}, {"measurement": "uptake in the myocardial infarction area (PET myocardial metabolic image)", "setting": "[1]; Example 2, one-day protocol, XTR003 3.1mCi injected 1 hour later, FIGS. 2b-2c", "result": "no XTR003 uptake"}, {"measurement": "image quality of myocardial metabolic images", "setting": "[1]; Example 3, one-day protocol, XTR003 1 mCi first, then 18F-FDG 3 mCi, FIGS. 4a-4b", "result": "normal image quality"}, {"measurement": "image quality of myocardial metabolic images", "setting": "[1]; Example 4, two-day protocol, FIGS. 6a-6b", "result": "normal image quality"}, {"measurement": "visibility of myocardial metabolic images", "setting": "normal myocardium", "result": "can show normal image"}]}]}
